Converted amounts (≈) assume the structure as drawn. “Also recorded” adds a separate entry of the source.
What was measured:
[1] = tested on: FVB mice; assay: Acute toxicity dose-escalation study in mice; assay type: in vivo, mouse; details: n = 2
Description: Six-week-old female FVB mice were administered BAP by intraperitoneal (IP) injection at doses of 1, 3, 10, 30, 100, and 300 mg/kg. The mice were observed every hour for 6 h post administration for signs of overt toxicity or mortality, or for symptoms related to pain/distress (ruffled fur, discharge from the eyes, dehydration, hunched posture, convulsions, lethargy, reluctance to move, uncoordinated movements, hypothermia, pale ears/feet, labored respiration, and/or cyanosis). Following initial observations, 6 h post administration, mice were then observed daily for signs of toxicity for 18 days. Mice that were administered the highest dose of BAP tested (300 mg/kg) were weighed at days 0, 1, 2, 5, 6, 7, 13, and 18.

[2] = In vitro stability in mouse plasma; assay type: in vitro ADME
Description: In vitro stability studies were conducted using our previously published methods naive CD1 mouse plasma or liver homogenate. For liver homogenate stability study, washed mouse liver was diluted 10-fold in 0.1 M potassium phosphate buffer and homogenized using probe sonication. Crude homogenate was then aliquoted to 1 mL, and the homogenate was spiked with 10 µM compound. The plasma stability of the compounds was determined by spiking (10 µM) in 1 mL of plasma and incubating in an orbital shaker at 37°C. All the stability studies were conducted at predetermined times (0, 30, and 60 min), where 100 µL aliquots of the mixture in triplicate were removed and the reaction was quenched by the addition of three times the volume of ice-cold acetonitrile spiked with the internal standard (losartan: 0.5 µM). The samples were vortex-mixed for 30 s and centrifuged at 10,000g for 10 min at 4°C. An amount of 50 µL of the supernatant was diluted with 50 µL of water and transferred to a 250 µL polypropylene vial sealed with a Teflon cap. Compound disappearance was monitored over time using liquid chromatography and tandem mass spectrometry (LC–MS/MS). Paired t-tests were used to determine statistical significance between 0 and 60 min time points.

[3] = tested on: UPEC strain CFT073; assay: In vivo ascending UTI assay (prophylaxis); parameters: species or system Escherichia coli in C3H/HeN mice; details: for median log reduction of bacterial burden vs PBS-treated cohort: bladder, 48 h
Description: Female mice were injected subcutaneously in the flank with 2.5 mg of MPA (150 mg/mL, diluted in sterile saline) 7 days prior to inoculation ([60]). Mice were dosed vaginally with 30 µL of sterile saline lavage fluid immediately prior to inoculation. The fluid was collected, placed on a slide, heat fixed, Gram stained, and assessed to determine the estrous cycle stage of each mouse as previously described ([61]).
Six-week-old female C3H/HeN mice were inoculated with UPEC as previously described ([28]). Briefly, UPEC strain CFT073 (ATCC designation: BAA-2503) was streaked on LB agar from a frozen glycerol stock and grown overnight at 37°C. Following overnight incubation, three to five colonies were picked and subcultured into 10 mL of sterile LB, and the culture was incubated statically overnight at 37°C. The culture was diluted 1:1,000 (25 µL of culture into 25 mL of sterile LB) and incubated statically for 24 h at 37°C to promote the growth of bacteria with type-1 pili expression. The resulting 25 mL inoculum was centrifuged at 4,200 × g for 20 min at 4°C. The supernatant was removed, and the cell pellet was resuspended in 10 mL of sterile PBS. The OD600 was adjusted to 1.0 by the addition of PBS to give a cell density of approximately 4 × 10^7 to 1 × 10^8 CFUs per 50 µL, the volume of the inoculum. Cell counts were validated by plating a dilution of the inoculum solution and enumerating following overnight incubation.
Urinary catheters were assembled by threading 30G needles with 0.28 mm inner diameter polyethylene tubing to create a soft tip. Catheter tips were dipped in lubricant immediately before inoculation. During catheterization, urine was aspirated from the bladder prior to inoculation with 50 µL of UPEC inoculum, prepared as described above. Mice were housed with their drug-dosed cohort and dosed intraperitoneally according to each experiment’s dosing regimen as shown in the figures. Dosing regimen for BAP trial 1 (Fig. 7b)consisted of IP administration of BAP (300 mg/kg) 30 min before inoculation; dosing regimen for BAP trial 2 (Fig. 7c) consisted of IP administration of BAP (600 mg/kg) 30 min before inoculation followed with IP doses of BAP (300 mg/kg) at 1 and 3 hpi; dosing regimen for BAP trial 3 and the pro-hpAP trial (Fig. 7d) consisted of IP administration of BAP (600 mg/kg) or pro-hpAP (60 mg/kg) 30 min before inoculation followed with IP doses of BAP (300 mg/kg) or pro-hpAP (30 mg/kg) at 1, 3, and 24 hpi; dosing regimen 4 (Fig. S3) consisted of IP administration of BAP (600 mg/kg) 30 min before inoculation followed with IP doses of BAP (300 mg/kg) at 1, 3, 6, 10, 22, 26, and 30 hpi. Gentamicin diluted in sterile PBS was used as a positive control and was administered to mice at 10 mg/kg IP 30 min prior to inoculation in all experiments.
After 48 h, mice were anesthetized by isoflurane inhalation and sacrificed by cervical dislocation. Bladders were harvested, added to 1 mL sterile PBS, and homogenized with a hand-held homogenizer in a biosafety cabinet. Tissue homogenates were serially-diluted (five 10-fold dilutions), and 100 µL of each dilution was plated onto LB plates and enumerated after a 24 h incubation at 37°C, yielding an effective detection range of 1 × 10^2–150 × 10^8 CFU/mL. In a few cases, bacterial counts fell below the lower limit of detection or above the upper limit of detection and are reported as 0 CFU/mL or conservatively 200 × 10^8 CFU/mL, respectively.

[4] = tested on: UPEC (CFT073); parameters: method as in PMID 37107054; details: cited from earlier work

| Compound | body weight ([1]; single IP dose 300 mg/kg, weighed for 18 days, 300 mg/kg) | overt toxicity or altered behavior ([1]; single IP dose, escalating up to 300 mg/kg, observed 18 days) | % remaining in plasma ([2]; 10 µM, 37°C, at 1 h) [%] | protection against UTI ([3]; BAP single 300 mg/kg IP dose 30 min prior to inoculation, 300 mg/kg) | median log reduction of bacterial burden vs PBS-treated cohort ([3]; BAP trial 1: 300 mg/kg IP 30 min before inoculation (1 dose)) | median log reduction of bacterial burden vs PBS-treated cohort ([3]; BAP trial 2: 600 mg/kg IP 30 min before inoculation, 300 mg/kg at 1 and 3 hpi (3 doses)) [log] | median log reduction of bacterial burden vs PBS-treated cohort ([3]; BAP trial 3: 600 mg/kg IP 30 min before inoculation, 300 mg/kg at 1, 3 and 24 hpi (4 doses)) [log] | log reduction of bacterial burden vs PBS control ([3]; regimen 4: BAP 600 mg/kg IP 30 min before inoculation, 300 mg/kg at 1, 3, 6, 10, 22, 26 and 30 hpi) [log] | MIC (growth suppressed >90%) ([4]; UPEC CFT073 in urine) [µM] | reduction in UPEC growth ([4]; in urine, at 156 µM BAP) | remaining at 1 h, 10 µM ([2]; CD1, 37°C) [%] | median log reduction of bacterial burden vs PBS-treated cohort ([3]; pro-hpAP 60 mg/kg IP 30 min before inoculation, 30 mg/kg at 1, 3 and 24 hpi (4 doses)) [log] |
| --- | --- | --- | --- | --- | --- | --- | --- | --- | --- | --- | --- | --- |
| CCCCOP(=O)(O)C(C)=O [BAP, butyl acetylphosphonate] | weight was maintained throughout the observation period; also recorded: no symptoms of distress or change in weight | No overt toxicity or altered behavior was observed; also recorded: no symptoms of distress | 79 | not adequate to provide protection against UPEC infection; also recorded: provides no protection against UTI | no reduction | 1.05 | 1.14 | 1.32 | 1250 (≈ 225 µg/mL) | ~ 80% | – | – |
| C#CCCOP(=O)(O)C(=C)NC(=O)C(CC(C)C)NC(=O)CN (stereo not drawn) [pro-hpAP] | – | – | – | – | – | – | – | – | – | – | 95 | 1.42 |

From paper PMC10986598, “Investigating inhibitors of 1-deoxy-D-xylulose 5-phosphate synthase in a mouse model of UTI” (Microbiology Spectrum, 2024)
